From PubChem BioAssay (NCI)
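Growth conditions: 96-well plates. Treatment: test compound, 48 hours, 5 concentrations. Analysis: linear interpolation between bracketing concentrations; unreached endpoints set to highest concentration. At the GI50, growth is halved. TGI: total growth inhibition.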

Legend:
Assay in all cases: growth of human tumour cells (NCI), 48 h
M14 melanoma = system: M14 melanoma
HL-60(TB) leukemia = system: HL-60(TB) leukemia
IGROV1 ovarian = system: IGROV1 ovarian
NCI/ADR-RES ovarian = system: NCI/ADR-RES ovarian
U251 CNS = system: U251 CNS
MOLT-4 leukemia = system: MOLT-4 leukemia
UACC-257 melanoma = system: UACC-257 melanoma
HT29 colon = system: HT29 colon
BT-549 breast = system: BT-549 breast
TK-10 renal = system: TK-10 renal
SW-620 colon = system: SW-620 colon
MALME-3M melanoma = system: MALME-3M melanoma
HCC-2998 colon = system: HCC-2998 colon
RXF 393 renal = system: RXF 393 renal
SN12C renal = system: SN12C renal
SF-295 CNS = system: SF-295 CNS
HS 578T breast = system: HS 578T breast
SF-539 CNS = system: SF-539 CNS
HCT-15 colon = system: HCT-15 colon
MDA-MB-435 = system: MDA-MB-435
786-0 renal = system: 786-0 renal
NCI-H226 lung = system: NCI-H226 lung
SNB-19 CNS = system: SNB-19 CNS
MDA-MB-231 breast = system: MDA-MB-231 breast
KM12 colon = system: KM12 colon
K-562 leukemia = system: K-562 leukemia
SR leukemia = system: SR leukemia
HOP-62 NSCLC = system: HOP-62 NSCLC
RPMI-8226 leukemia = system: RPMI-8226 leukemia

`CCOc1ccc(NC2=C(Cl)C(=O)c3nc(C)ccc3C2=O)cc1` was tested, and the TGI (M14 melanoma) was 3230 nM, the GI50 (HL-60(TB) leukemia) was 1470 nM and the TGI (HL-60(TB) leukemia) was 4180 nM. The GI50 (IGROV1 ovarian) was 1360 nM, the TGI (IGROV1 ovarian) was 2760 nM and the GI50 (NCI/ADR-RES ovarian) was 1700 nM. It also gave a TGI (NCI/ADR-RES ovarian) of 4110 nM, a GI50 (U251 CNS) of 1800 nM and a TGI (U251 CNS) of 3540 nM. For the same molecule, the GI50 (MOLT-4 leukemia) was 2490 nM, the TGI (MOLT-4 leukemia) was over 100000 nM and the GI50 (UACC-257 melanoma) was 1390 nM. The TGI (UACC-257 melanoma) was 2780 nM, the GI50 (HT29 colon) was 2870 nM and the TGI (HT29 colon) was 7080 nM. The GI50 (BT-549 breast) was 1430 nM, the TGI (BT-549 breast) was 2800 nM and the GI50 (TK-10 renal) was 2300 nM. For the same molecule, the TGI (TK-10 renal) was 3770 nM, the GI50 (SW-620 colon) was 1830 nM and the TGI (SW-620 colon) was 3510 nM. The GI50 (MALME-3M melanoma) was 1650 nM, the TGI (MALME-3M melanoma) was 3160 nM and the GI50 (HCC-2998 colon) was 1760 nM. It also gave a TGI (HCC-2998 colon) of 3250 nM, a GI50 (RXF 393 renal) of 1570 nM and a TGI (RXF 393 renal) of 2960 nM. For the same molecule, the GI50 (SN12C renal) was 1580 nM, the TGI (SN12C renal) was 2990 nM and the GI50 (SF-295 CNS) was 1860 nM. The TGI (SF-295 CNS) was 3430 nM, the GI50 (HS 578T breast) was 2220 nM and the TGI (HS 578T breast) was 5820 nM. The GI50 (SF-539 CNS) was 1680 nM, the TGI (SF-539 CNS) was 3130 nM and the GI50 (HCT-15 colon) was 1300 nM. For the same molecule, the TGI (HCT-15 colon) was 2950 nM, the GI50 (MDA-MB-435) was 442 nM and the TGI (MDA-MB-435) was 1530 nM. The GI50 (786-0 renal) was 1720 nM, the TGI (786-0 renal) was 3190 nM and the GI50 (NCI-H226 lung) was 1840 nM. For the same molecule, the TGI (NCI-H226 lung) was 4520 nM, the GI50 (SNB-19 CNS) was 1680 nM and the TGI (SNB-19 CNS) was 3160 nM. It also gave a GI50 (MDA-MB-231 breast) of 1170 nM, a TGI (MDA-MB-231 breast) of 2500 nM and a GI50 (KM12 colon) of 1440 nM. The TGI (KM12 colon) was 3070 nM, the GI50 (K-562 leukemia) was 1170 nM and the TGI (K-562 leukemia) was over 100000 nM. For the same molecule, the GI50 (SR leukemia) was 1090 nM, the TGI (SR leukemia) was over 100000 nM and the GI50 (HOP-62 NSCLC) was 1740 nM. The TGI (HOP-62 NSCLC) was 3230 nM, the GI50 (RPMI-8226 leukemia) was 1670 nM and the TGI (RPMI-8226 leukemia) was 5330 nM.
